Laboratory results published in US4175081A, “5-Substituted thiadiazole ureas” (priority 1977, dated 1979).

Key:
[1] = test system: Crabgrass (CG); assay: Pre-emergence herbicide test; type: in vivo, Digitaria sanquinalis; conditions: Digitaria sanguinalis, pre-emergence, 336 h, two weeks after treatment; for pest or weed control at 8966.8 g/ha: 8 lb/acre
In short: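 Crabgrass (Digitaria sanquinalis) was surface seeded in 3' plastic pots of potting soil, covered with screened soil, and watered by sub-irrigation in greenhouse trays. Pots were seeded one day before spraying in a hood with a moving belt and fixed nozzle. Plants stayed in the greenhouse on sub-irrigation, and pre-emergence control was rated visually two weeks after treatment.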

[2] = test system: Yellow foxtail grass (YF); assay: Pre-emergence herbicide test; type: in vivo, Setaria glauca; conditions: Setaria, 336 h, two weeks after treatment; for pest or weed control at 8966.8 g/ha: 8 lb/acre
In short: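 Visual rating of injury/control made two weeks after a pre-emergence spray of 8 or 4 lbs active per acre (38 gal/acre) onto pots seeded the previous day. Greenhouse watering by sub-irrigation only.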

[3] = test system: Johnson grass (JG); assay: Pre-emergence herbicide test; type: in vivo, Sorgum helepense; conditions: Sorghum halepense, 336 h, two weeks after treatment; for pest or weed control at 8966.8 g/ha: 8 lb/acre
In short: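 Visual injury or control rating two weeks post-treatment, after pre-emergence spray of 8 or 4 lbs active per acre (38 gal/acre) onto pots sown the previous day. Greenhouse watering by sub-irrigation only.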

[4] = test system: Barnyard grass (BG); assay: Pre-emergence herbicide test; type: in vivo; conditions: Echinochloa crus-galli, 336 h, two weeks after treatment; for pest or weed control at 8966.8 g/ha: 8 lb/acre
In short: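 Greenhouse pre-emergence spray test: pots seeded one day before treatment received compound at rates of 8 or 4 lb/acre (38 gal/acre). Visual injury/control scores for Echinochloa crus-galli taken at two weeks, with watering by sub-irrigation only.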

[5] = test system: Amaranth pigweed (PW); assay: Pre-emergence herbicide test; type: in vivo, Amaranthus retroflexus; conditions: 336 h, two weeks after treatment; for pest or weed control at 8966.8 g/ha: 8 lb/acre
In short: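 Visual injury or control ratings were made at two weeks on pre-emergence pots, sub-irrigated in the greenhouse. Seeds were sown a day before a hood spray delivering 8 lbs/acre (or 4 lbs/acre) of compound in 38 gallons per acre.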

[6] = test system: Turnip (TP); assay: Pre-emergence herbicide test; type: in vivo, Brassica sp.; conditions: Brassica rapa, pre-emergence, 336 h, two weeks after treatment; for pest or weed control at 8966.8 g/ha: 8 lb/acre
In short: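 In this pre-emergence greenhouse test, turnip was seeded on the surface of potting soil in 3' plastic pots, lightly covered with screened soil, and watered from below. One day later the pots were sprayed in a belt-fed spray hood. Watering continued only by sub-irrigation, and percent control was visually scored two weeks after treatment.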

[7] = test system: Cotton (CT); assay: Pre-emergence herbicide test; type: in vivo, Gossypium hirsutum var. DPL smooth leaf; conditions: Gossypium hirsutum, 336 h, two weeks after treatment; for pest or weed control at 8966.8 g/ha: 8 lb/acre
In short: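 Visual injury/control ratings were taken at two weeks post-spray. Pots seeded a day earlier received compound pre-emergence at 8 lbs/acre, or 4 lbs/acre, in a 38 gallon/acre spray volume, and were then held in the greenhouse, watered only from below.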

[8] = test system: Corn (CN); assay: Pre-emergence herbicide test; type: in vivo; conditions: Zea mays, 336 h, two weeks after treatment; for pest or weed control at 8966.8 g/ha: 8 lb/acre
In short: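 Visual injury/control ratings were made 2 weeks post-spray on corn pots seeded (4 seeds, seed-diameter depth) the day before treatment. Application was a belt-hood spray of 38 gal/acre delivering 8 lbs active per acre, with a 4 lbs/acre rate also formulated. Watering was by sub-irrigation throughout.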

[9] = test system: Bean (BN); assay: Pre-emergence herbicide test; type: in vivo, Phaseolus vulgaris var. Black Valentine; conditions: Phaseolus vulgaris, 336 h, two weeks after treatment; for pest or weed control at 8966.8 g/ha: 8 lb/acre
In short: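 Visual injury/control ratings were taken two weeks post-spray on sub-irrigated Phaseolus vulgaris var. Black Valentine. Pots were sown a day before treatment. Pre-emergence spray delivered 8 lbs actual compound per acre (or 4 lbs/acre) at 38 gallons per acre.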

[10] = test system: Crabgrass (CG); assay: Post-emergence herbicide test; type: in vivo, Digitaria sanquinalis; conditions: Digitaria sanguinalis, post-emergence, 336 h, two weeks after treatment; for pest or weed control at 8966.8 g/ha: 8 lb/acre
In short: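 Crabgrass (Digitaria sanquinalis) was surface seeded individually in 3' plastic pots of potting soil, covered with screened soil, and watered by sub-irrigation in greenhouse trays. Planting was staggered so seedlings reached the target stage together. Post-emergence sprays were applied in a hood with a removable belt and fixed nozzle, and control was visually rated two weeks after treatment.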

[11] = test system: Yellow foxtail grass (YF); assay: Post-emergence herbicide test; type: in vivo, Setaria glauca; conditions: Setaria, 336 h, two weeks after treatment; for pest or weed control at 8966.8 g/ha: 8 lb/acre
In short: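 Visual rating of injury/control made 2 weeks post-spray. Seedlings at a uniform growth stage in soil-filled pots received a hood spray of 8 lbs/acre active compound, 38 gallons/acre volume, with a 4 lbs/acre rate also formulated. Watering was by sub-irrigation only.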

[12] = test system: Johnson grass (JG); assay: Post-emergence herbicide test; type: in vivo, Sorgum helepense; conditions: Sorghum halepense, 336 h, two weeks after treatment; for pest or weed control at 8966.8 g/ha: 8 lb/acre
In short: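 Visual injury or control scores taken 2 weeks after a post-emergence spray of pot-grown plants. Application was 8 lbs/acre (or 4 lbs/acre) in 38 gal/acre. Plants were held in the greenhouse with sub-irrigation only.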

[13] = test system: Barnyard grass (BG); assay: Post-emergence herbicide test; type: in vivo; conditions: Echinochloa crus-galli, 336 h, two weeks after treatment; for pest or weed control at 8966.8 g/ha: 8 lb/acre
In short: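 Greenhouse pot-grown barnyard grass seedlings sprayed post-emergence at 8 lbs active compound per acre (some at 4 lbs/acre) in 38 gallons per acre, then sub-irrigated. Injury or control rated visually two weeks after treatment.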

[14] = test system: Amaranth pigweed (PW); assay: Post-emergence herbicide test; type: in vivo, Amaranthus retroflexus; conditions: 336 h, two weeks after treatment; for pest or weed control at 8966.8 g/ha: 8 lb/acre
In short: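 Visual injury or control ratings were made two weeks after spraying, with greenhouse watering by sub-irrigation only. Treatment was post-emergence, when pigweed seedlings had 1 or 2 true leaves, at 8 lbs active compound per acre (4 lbs/acre formulations also made) in a 38 gallons-per-acre spray volume.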

[15] = test system: Turnip (TP); assay: Post-emergence herbicide test; type: in vivo, Brassica sp.; conditions: Brassica rapa, post-emergence, 336 h, two weeks after treatment; for pest or weed control at 8966.8 g/ha: 8 lb/acre
In short: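 A greenhouse post-emergence herbicide test on turnip. Seeds were sown on the surface of potting soil in 3' plastic pots, lightly covered with screened soil and watered from below. Planting was timed so seedlings had 1 or 2 true leaves above the cotyledons at spraying, done in a hood with a fixed nozzle. Control or injury was scored by eye after two weeks.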

[16] = test system: Cotton (CT); assay: Post-emergence herbicide test; type: in vivo, Gossypium hirsutum var. DPL smooth leaf; conditions: Gossypium hirsutum, post-emergence, 336 h, two weeks after treatment; for pest or weed control at 8966.8 g/ha: 8 lb/acre
In short: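 This greenhouse post-emergence test measured how well spray treatments controlled cotton. Seedlings of Gossypium hirsutum var. DPL smooth leaf, with expanded cotyledons and a first true leaf 1' in length, were sprayed with 50 ml formulations in a belt-fed spray hood. They were then returned to the greenhouse and watered only by sub-irrigation. Injury was scored visually as % control after two weeks.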

[17] = test system: Corn (CN); assay: Post-emergence herbicide test; type: in vivo; conditions: Zea mays, 336 h, two weeks after treatment; for pest or weed control at 8966.8 g/ha: 8 lb/acre
In short: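 Greenhouse seedlings grown in potting soil and sprayed post-emergence at 8 lbs compound/acre (formulations also made for 4 lbs/acre) in 38 gallons/acre spray volume. Watering by sub-irrigation only. Injury or control rated visually two weeks after treatment.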

[18] = test system: Bean (BN); assay: Post-emergence herbicide test; type: in vivo, Phaseolus vulgaris var. Black Valentine; conditions: Phaseolus vulgaris, post-emergence, 336 h, two weeks after treatment; for pest or weed control at 8966.8 g/ha: 8 lb/acre
In short: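 Bean seedlings (Phaseolus vulgaris var. Black Valentine) were grown in potting soil in 3' pots until the primary leaves expanded. They were then sprayed under a hood with a removable belt and fixed nozzle, using 50 ml formulations. Afterward they were returned to the greenhouse and watered only by sub-irrigation. Percent control was judged visually two weeks after treatment.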

`CNC(=O)Nc1nnc(S(C)(=O)=O)s1` [Example 33] showed a pest or weed control ([1]; 2 lb/acre) of 90%, a pest or weed control at 4483.4 g/ha ([1]; 4 lb/acre) of 90% and a pest or weed control at 8966.8 g/ha [1] of 90%. The pest or weed control at 2241.7 g/ha ([2]; 2 lb/acre) was 70%, the pest or weed control at 4483.4 g/ha ([2]; 4 lb/acre) was 90% and the pest or weed control at 8966.8 g/ha [2] was 80%. It also gave a pest or weed control at 2241.7 g/ha ([3]; 2 lb/acre) of 80%, a pest or weed control at 4483.4 g/ha ([3]; 4 lb/acre) of 60% and a pest or weed control at 8966.8 g/ha [3] of 70%. For the same molecule, the pest or weed control at 2241.7 g/ha ([4]; 2 lb/acre) was 70%, the pest or weed control at 4483.4 g/ha ([4]; 4 lb/acre) was 90% and the pest or weed control at 8966.8 g/ha [4] was 80%. The pest or weed control at 2241.7 g/ha ([5]; 2 lb/acre) was 50%, the pest or weed control at 4483.4 g/ha ([5]; 4 lb/acre) was 60% and the pest or weed control at 8966.8 g/ha [5] was 70%. It also gave a pest or weed control at 2241.7 g/ha ([6]; 2 lb/acre) of 90%, a pest or weed control at 4483.4 g/ha ([6]; 4 lb/acre) of 100% and a pest or weed control at 8966.8 g/ha [6] of 100%. For the same molecule, the pest or weed control at 2241.7 g/ha ([7]; 2 lb/acre) was 40%, the pest or weed control at 4483.4 g/ha ([7]; 4 lb/acre) was 50% and the pest or weed control at 8966.8 g/ha [7] was 50%. The pest or weed control at 2241.7 g/ha ([8]; 2 lb/acre) was 20%, the pest or weed control at 4483.4 g/ha ([8]; 4 lb/acre) was 20% and the pest or weed control at 8966.8 g/ha [8] was 70%. The pest or weed control at 2241.7 g/ha ([9]; 2 lb/acre) was 100%, the pest or weed control at 4483.4 g/ha ([9]; 4 lb/acre) was 90% and the pest or weed control at 8966.8 g/ha [9] was 90%. It also gave a pest or weed control ([10]; 2 lb/acre) of 90%, a pest or weed control at 4483.4 g/ha ([10]; 4 lb/acre) of 60% and a pest or weed control at 8966.8 g/ha [10] of 90%. The pest or weed control ([11]; 2 lb/acre) was 70%, the pest or weed control at 4483.4 g/ha ([11]; 4 lb/acre) was 100% and the pest or weed control at 8966.8 g/ha [11] was 90%. For the same molecule, the pest or weed control ([12]; 2 lb/acre) was 80%, the pest or weed control at 4483.4 g/ha ([12]; 4 lb/acre) was 50% and the pest or weed control at 8966.8 g/ha [12] was 40%. For the same molecule, the pest or weed control at 2241.7 g/ha ([13]; 2 lb/acre) was 70%, the pest or weed control at 4483.4 g/ha ([13]; 4 lb/acre) was 70% and the pest or weed control at 8966.8 g/ha [13] was 100%. For the same molecule, the pest or weed control at 2241.7 g/ha ([14]; 2 lb/acre) was 50%, the pest or weed control at 4483.4 g/ha ([14]; 4 lb/acre) was 100% and the pest or weed control at 8966.8 g/ha [14] was 100%. It also gave a pest or weed control at 2241.7 g/ha ([15]; 2 lb/acre) of 90%, a pest or weed control at 4483.4 g/ha ([15]; 4 lb/acre) of 80% and a pest or weed control at 8966.8 g/ha [15] of 100%. It also gave a pest or weed control at 2241.7 g/ha ([16]; 2 lb/acre) of 40%, a pest or weed control at 4483.4 g/ha ([16]; 4 lb/acre) of 100% and a pest or weed control at 8966.8 g/ha [16] of 100%. The pest or weed control ([17]; 2 lb/acre) was 20%, the pest or weed control at 4483.4 g/ha ([17]; 4 lb/acre) was 10% and the pest or weed control at 8966.8 g/ha [17] was 100%. It also gave a pest or weed control at 2241.7 g/ha ([18]; 2 lb/acre) of 100%, a pest or weed control at 4483.4 g/ha ([18]; 4 lb/acre) of 100% and a pest or weed control at 8966.8 g/ha [18] of 100%.
`CNC(=O)N(C)c1nnc(SC)s1` [Example 38] was tested, and the pest or weed control at 8966.8 g/ha [1] was 100%, the pest or weed control at 8966.8 g/ha [2] was 100% and the pest or weed control at 8966.8 g/ha [3] was 80%. For the same molecule, the pest or weed control at 8966.8 g/ha [4] was 100%, the pest or weed control at 8966.8 g/ha [5] was 90% and the pest or weed control at 8966.8 g/ha [6] was 100%. It also gave a pest or weed control at 8966.8 g/ha [7] of 90%, a pest or weed control at 8966.8 g/ha [8] of 80% and a pest or weed control at 8966.8 g/ha [9] of 100%. The pest or weed control at 8966.8 g/ha [10] was 80%, the pest or weed control at 8966.8 g/ha [11] was 100% and the pest or weed control at 8966.8 g/ha [12] was 80%. The pest or weed control at 8966.8 g/ha [13] was 90%, the pest or weed control at 8966.8 g/ha [14] was 100% and the pest or weed control at 8966.8 g/ha [15] was 100%. It also gave a pest or weed control at 8966.8 g/ha [16] of 100%, a pest or weed control at 8966.8 g/ha [17] of 100% and a pest or weed control at 8966.8 g/ha [18] of 100%.
